The structures appear in SMILES notation. A value given as a limit tells only on which side of the number the result lay.

This is an account of results in patent publication US9181182B2, “S1P receptors modulators” (Akaal Pharma PTY LTD, priority 2008, dated 2015).

The target of series [1] is S1P3 human receptor (Homo sapiens (Human), UniProt Q99500). Put plainly: S1P3 calcium mobilization in CHO K1 cells. The class given is cell-based. Particulars: NA = Not Active. Here is the method:
(§1) Independently, selected compounds were evaluated for S1P1 and S1P3 agonistic activity. The S1P1 assay system was GTPgama-S35 binding in membranes from CHO K1 cells, expressing S1P1 human receptor. The S1P3 assay system was calcium mobilization in CHO K1 cells expressing S1P3 human receptor. […] Compounds were tested initially at a concentration of 10 μM.

The target of series [2] is S1P1 human receptor (Homo sapiens (Human), UniProt P21453). Put plainly: S1P1 [35S]-GTPgamaS binding assay (agonist activity). In kind it is biochemical. The following applies: for EC50: GTPgamaS binding, agonist; for Efficacy (% of maximum): S1P1, relative to reference agonist S1P; for EC50S1P1/EC50S1P: potency at S1P1 relative to S1P. How it is done: Selected Compounds of the Examples were evaluated at Millipore Corporation, USA, using S1P1 receptor; [^35S]-GTPgamaS binding assay. A [^35S]-GTPgamaS binding assay at Millipore was conducted by GPCR Profiler™ Custom Service Laboratory, Temecula, Calif., Millipore, Inc. to monitor dose-dependent agonist selectivity for selected Examples against the S1P1 receptors. The assay was completed with sample compounds subjected to an eight-point, four-fold dose response curve with starting concentration of 10 μM. Selectivity was determined upon initial addition of compounds followed by a 30 minute incubation at 30° C. Following compound incubation, bounded [^35S]-GTPgamaS was determined by filtration and scintillation counting.
as §1

Series [3] deals with Human promyelocytic leukemia (HL-60) cells. Nature of the series: Cell viability (growth inhibition) assay, MTS. In kind it is cell-based. Particulars: 50% reduction in cell viability of HL-60 cells, 48 hr incubation. How it is done: In order to measure the apoptotic effect of compounds on the metabolic activity of viable cells, the following assay was performed on Human promyelocytic leukemia cells. The assay utilises the tetrazolium compound (3-(4,5-dimethylthiazol-2-yl)-5-(3-carboxymethoxyphenyl)-2-(4-sulfophenyl)-2H-tetrazolium, inner salt; (MTS) and an electron coupling reagent (phenazine methosulfate; (PMS). MTS is bioreduced by cells into a formazan product the optical absorbance of which is measured directly from 96 well assay plates. The conversion of MTS into aqueous, soluble formazan is accomplished by dehydrogenase enzymes found in metabolically active cells. The quantity of formazan product as measured by the amount of 490 nm absorbance is directly proportional to the number of living cells in culture.
The assay was based on the National Cancer Institute (NCI) protocol, briefly, cells were grown in RPMI 1640 media supplemented with 10% FCS (foetal calf serum) and kept at 37° C. in a humidified environment with 5% CO2.
For the growth inhibition assay, Human promyelocytic leukemia (HL-60) cells were seeded at a density of 10,000 cells per well in 96 well plates in a volume of 100 μl and allowed to grow for 24 h. Compounds were serially diluted in DMSO at concentrations 100 fold higher than used in the assay (100×). Compounds were freshly prepared for each experiment. The 100× stocks were then diluted to 2× stocks into media and immediately, 100 μl of this 2× stock was added to the cells to create the desired final concentration of drug with a DMSO concentration of 1%. One row of each 96 well plate was treated with DMSO alone as a control. Cells were then incubated for a further 48 hr. Metabolic activity was determined using MTS (Promega) (90% 1.6 mg/ml MTS, 10% 1.6 mg/ml PMS (phenazine methosulfate) made fresh in PBS). 50 μl of this mix was added to all wells of the plates and allowed to incubate for 1.5-2 hr. Plates were shaken gently for about 15 min and absorbance was read on a plate reader at 490 nm. Averages were taken of the readings at each point with standard deviation and plotted using MicroCal Origin.

In series [4] the test system is female BALB/c mice. Put plainly: Lymphopenia assay. In kind it is in vivo. Here is the method:
The study was performed to determine the ability of the compounds of the invention to induce lymphopenia in female BALB/c mice. On day 0, 27 female BALB/c mice were randomised based on body weight into nine groups of three mice each. Animals received a single i.p. administration of Test compounds and blood was collected by cardiac puncture either 6 or 24 h after administration. […] Changes to other haematological parameters were not observed.

[5] abbreviates: 3 mg/kg and 30 mg/kg single i.p., 6 and 24 h, compared to untreated animals.

Sequence of S1P3 human receptor (Q99500 whole entry): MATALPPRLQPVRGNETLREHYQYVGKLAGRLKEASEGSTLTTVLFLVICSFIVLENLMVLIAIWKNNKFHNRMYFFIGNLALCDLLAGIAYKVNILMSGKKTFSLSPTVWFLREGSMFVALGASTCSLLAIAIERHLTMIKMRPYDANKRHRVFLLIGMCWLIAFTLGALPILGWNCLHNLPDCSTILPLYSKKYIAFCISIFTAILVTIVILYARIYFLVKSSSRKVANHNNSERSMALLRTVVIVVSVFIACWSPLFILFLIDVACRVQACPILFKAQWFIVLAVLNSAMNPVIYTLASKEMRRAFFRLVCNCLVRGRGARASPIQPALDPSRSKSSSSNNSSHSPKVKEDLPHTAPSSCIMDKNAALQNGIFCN
Sequence of S1P1 human receptor (P21453 whole entry): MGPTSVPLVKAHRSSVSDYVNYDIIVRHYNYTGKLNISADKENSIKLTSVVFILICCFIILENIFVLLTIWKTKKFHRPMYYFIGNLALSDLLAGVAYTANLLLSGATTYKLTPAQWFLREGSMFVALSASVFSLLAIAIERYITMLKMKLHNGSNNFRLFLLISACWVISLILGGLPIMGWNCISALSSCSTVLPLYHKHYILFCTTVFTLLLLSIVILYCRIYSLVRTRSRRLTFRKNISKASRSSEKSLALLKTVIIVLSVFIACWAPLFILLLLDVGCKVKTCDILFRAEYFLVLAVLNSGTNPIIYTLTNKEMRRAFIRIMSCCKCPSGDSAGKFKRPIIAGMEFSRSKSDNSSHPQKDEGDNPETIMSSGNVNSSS

A word on the EC50: it is the concentration needed to bring the measured effect to its halfway point. In the case of `CCOc1ccc(-c2nc(-c3ccc4c(c3)CN(CC(N)(CO)CO)C4)no2)cc1OCC` [Example 65, 2-Amino-2-((5-(5-(3,4-diethoxyphenyl)-1,2,4-oxadiazol-3-yl)isoindolin-2-yl)methyl)propane-1,3-diol], in series [1], the EC50 was determined as 0.39 µM. Further, in series [2], the EC50 was 0.0074 µM, the “Efficacy (% of maximum)” value was 97% and the EC50S1P1/EC50S1P is 0.16.

For `CCCc1ccc(-c2nc(-c3cccc4c3CCN4CC(N)(CO)CO)no2)cc1CCC` [Example 47, 2-Amino-2-((4-(5-(3,4-dipropylphenyl)-1,2,4-oxadiazol-3-yl)indolin-1-yl)methyl)propane-1,3-diol], the half-maximal effective concentration (EC50) in series [1] is 0.965 µM. Also, in series [2], the EC50 came to 0.0024 µM, the “Efficacy (% of maximum)” value is on record as 94% and the EC50S1P1/EC50S1P is given as 0.33.

In the case of `CCCOc1ccc(-c2nc(-c3cccc4c3CCN4CC(N)(CO)CO)no2)cc1OCCC` [Example 43, 2-Amino-2-((4-(5-(3,4-di-propoxyphenyl)-1,2,4-oxadiazol-3-yl)indolin-1-yl)methyl)propane-1,3-diol], in series [1], the EC50 turned out to be 3.1 µM. Also, in series [2], the EC50 came to 0.018 µM, the “Efficacy (% of maximum)” value was determined as 89% and the EC50S1P1/EC50S1P is 2.22.

Usually IC50 stands for the midpoint of a concentration-inhibition curve. Lower therefore signals greater potency in that assay. Take `CCOc1ccc(-c2nc(-c3cccc4c3CCN4CC(N)(CO)CO)no2)cc1OCC` [Example 34, 2-Amino-2-((4-(5-(3,4-diethoxyphenyl)-1,2,4-oxadiazol-3-yl)indolin-1-yl)methyl)propane-1,3-diol]: the midpoint of inhibition in series [3] (Homo sapiens), the IC50, lay at 1.82 ± 0.5 µM. In addition, the EC50 in series [1] came to 1.29 µM. In series [4] (setting [5]), the lymphocyte counts result is reported as “decrease” and the “total white blood cell counts” value is “decrease”. Also, the “Changes to other haematological parameters” value in series [4] (single i.p., 6 or 24 h) is reported as “not observed”. Moreover, in series [2], the 50% effective concentration (EC50) was 0.0068 µM, the “Efficacy (% of maximum)” value stood at 92% and the EC50S1P1/EC50S1P is reported as 0.4.

The compound `NC(CO)(CO)CN1CCc2cc(OCc3cc4c(Cl)cc(Cl)cc4o3)ccc21` [Example 8, 2-Amino-2-((5-((4,6-dichlorobenzofuran-2-yl)methoxy)indolin-1-yl)methyl) propane-1,3-diol] registered a concentration for half-maximal inhibition (IC50) in series [3] (Homo sapiens) of 1.93 ± 0.58 µM. In series [2], a half-maximal effect (EC50) was put at 0.131 µM, the “Efficacy (% of maximum)” value came out at 85% and the EC50S1P1/EC50S1P is listed as 23.

As to `CCCCCCCCc1ccc2c(c1)CCN2CC(N)(CO)CO` [Example 3, 2-Amino-2-((5-octylindolin-1-yl)methyl)propane-1,3-diol], in series [3] (Homo sapiens), the IC50 came out at 3.7 ± 1.02 µM. Besides, in series [2], the response was half-maximal at 2.11 µM (EC50), the “Efficacy (% of maximum)” value stood at 73% and the EC50S1P1/EC50S1P turned out to be 709.

For the compound `CCCCCCCCc1ccc2c(c1)CCCN2CC(N)(CO)CO` [Example 9, 2-Amino-2-((6-octyl-3,4-dihydroquinolin-1(2H)-yl)methyl)propane-1,3-diol], the half-maximal inhibitory concentration (IC50) in series [3] (Homo sapiens) was determined as 2.46 ± 0.51 µM. Moreover, in series [2], the EC50 was > 0.86 µM and the EC50S1P1/EC50S1P is >1000.

`CCCCCCCCOc1ccc(CCC(N)(CO)CO)cc1C12CC3CC(CC(C3)C1)C2.Cl` [Example 63, 2-Amino-2-(3-(1-admantyl)-4-(octyloxy)phenethyl)propane-1,3-diol hydrochloride salt] came in with an IC50 in series [3] of 2.4 ± 0.62 µM. For the same compound, in series [2], the EC50 is > 40 µM and the EC50S1P1/EC50S1P is reported as 3188.66.

As to `CCOc1ccc(-c2nc(-c3cccc4c3ccn4CC(N)(CO)CO)no2)cc1Cl` [Example 49, 2-Amino-2-((4-(5-(3-chloro-4-ethoxyphenyl)-1,2,4-oxadiazol-3-yl)-1H-indol-1-yl)methyl)propane-1,3-diol], in series [3] (Homo sapiens), the IC50 came to 10.2 µM. In addition, in series [2], the EC50 was 0.114 µM, the “Efficacy (% of maximum)” value came to 112% and the EC50S1P1/EC50S1P came out at 9.26.

The compound `CCCCCCCCc1ccc(CCC(N)(CO)CO)cc1` [FTY 720, 2-amino-2-(2-[4-octylphenyl]ethyl)-1,3-propanediol, reference compound] displayed a half-maximal inhibitory concentration (IC50) in series [3] (Homo sapiens) of 3.34 ± 0.19 µM. Moreover, the “Efficacy (% of maximum)” value in series [2] amounted to 99%.

`CCOc1ccc(-c2nc(-c3ccc4c(c3)CCN4CC(N)(CO)CO)no2)cc1OCC` [Example 40, 2-Amino-2-((5-(5-(3,4-diethoxyphenyl)-1,2,4-oxadiazol-3-yl)indolin-1-yl)methyl)propane-1,3-diol]: inhibition in series [3] (Homo sapiens) was half-maximal at 3.1 µM (IC50). Moreover, the EC50 in series [1] was > 15.6 µM. For the same compound, in series [2], the concentration for a half-maximal effect (EC50) came to 0.344 µM, the “Efficacy (% of maximum)” value is on record as 117% and the EC50S1P1/EC50S1P was found to be 36.41.

As for `CCCCCCCCc1ccc2c(c1)CN(CC(N)(CO)CO)C2` [Example 2, 2-Amino-2-((5-octylisoindolin-2-yl)methyl)propane-1,3-diol], in series [3] (Homo sapiens), the midpoint of inhibition, the IC50, lay at 3.48 ± 0.14 µM. Moreover, in series [2], it took 1.56 µM to reach a half-maximal effect (EC50), the “Efficacy (% of maximum)” value is on record as 91% and the EC50S1P1/EC50S1P is 593.

For the compound `NC(CO)(CO)CN1CCc2c(-c3noc(C45CC6CC(CC(C6)C4)C5)n3)cccc21` [Example 57, 2-Amino-2-((4-(5-(1-adamantyl)-1,2,4-oxadiazol-3-yl)indolin-1-yl)methyl) propane-1,3-diol], in series [3] (Homo sapiens), 1 µM corresponded to half-maximal inhibition (IC50). Also, in series [2], the “Efficacy (% of maximum)” value worked out at 82% and the EC50S1P1/EC50S1P worked out at 268.44.

`COc1ccc(-c2nc(-c3ccc4c(c3)CCN4CC(N)(CO)CO)no2)cc1Cl` [Example 7, 2-Amino-2-((5-(5-(3-chloro-4-methoxyphenyl)-1,2,4-oxadiazol-3-yl)indolin-1-yl)methyl)propane-1,3-diol] registered an IC50 in series [3] (Homo sapiens) of 3.07 ± 0.46 µM. In series [2], the EC50 was determined as 0.783 µM, the “Efficacy (% of maximum)” value stood at 109% and the EC50S1P1/EC50S1P is listed as 278.

In series [3] (Homo sapiens), `Cc1cc2cc(-c3nc(-c4cccc5c4CCN5CC(N)(CO)CO)no3)ccc2o1` [Example 42, 2-Amino-2-((4-(5-(2-methylbenzofuran-5-yl)-1,2,4-oxadiazol-3-yl)indolin-1-yl)methyl)propane-1,3-diol] yielded an IC50 of 1.7 ± 0.1 µM. Further, in series [2], the EC50 turned out to be 1.42 µM, the “Efficacy (% of maximum)” value worked out at 92% and the EC50S1P1/EC50S1P worked out at 117.8.

`CCOc1ccc(-c2nc(-c3ccc(C4=CCN(CC(N)(CO)CO)CC4)cc3)no2)cc1OCC` [Example 58, 2-Amino-2-((4-(4-(5-(3,4-diethoxyphenyl)-1,2,4-oxadiazol-3-yl)phenyl)-5,6-dihydropyridin-1(2H)-yl)methyl)propane-1,3-diol] returned a concentration for half-maximal inhibition (IC50) in series [3] (Homo sapiens) of 1.7 µM. In series [2], the EC50 is > 2.06 µM, the “Efficacy (% of maximum)” value stood at 60% and the EC50S1P1/EC50S1P is reported as 150.

In series [3] (Homo sapiens), `NC(CO)(CO)CN1CCc2c(OCc3cc4c(Cl)cc(Cl)cc4o3)cccc21` [41(a), 2-Amino-2-((4-((4,6-dichlorobenzofuran-2-yl)methoxy)indolin-1-yl)methyl)propane-1,3-diol] showed an IC50 of 2.55 ± 0.78 µM. In series [2], the 50% effective concentration (EC50) is > 1.36 µM, the “Efficacy (% of maximum)” value was determined as 42% and the EC50S1P1/EC50S1P came out at 144.46.
